Experimental data as given in ChEMBL document CHEMBL1201862, “PubChem BioAssay data set” (2004).
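Tested at 5 concentrations; 48 h exposure; 96-well plates; endpoints linearly interpolated, else capped at highest concentration. GI50 = concentration required for 50% inhibition of growth.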 Calls of active or inactive are those of the source. Cut-off read from the data, not from the text of the source: active = GI50 up to about 1.1 µM and inactive = higher.

Tests used:
Experiment in all cases: DTP human tumour cell line panel, 48 h
SK-OV-3 = test system: SK-OV-3
CAKI-1 = test system: CAKI-1
SF-268 = test system: SF-268
SN12C = test system: SN12C
UO-31 = test system: UO-31
HOP-92 = test system: HOP-92
NCI-H23 = test system: NCI-H23
Hs-578T = test system: Hs-578T
HCT-15 = test system: HCT-15
IGROV-1 = test system: IGROV-1
NCI-H522 = test system: NCI-H522
CCRF-CEM = test system: CCRF-CEM
SK-MEL-2 = test system: SK-MEL-2
DU-145 = test system: DU-145
SW-620 = test system: SW-620
SK-MEL-28 = test system: SK-MEL-28
LOX IMVI = test system: LOX IMVI
RXF 393 = test system: RXF 393
SNB-75 = test system: SNB-75

Structure (SMILES)	GI50 (SK-OV-3)	GI50 (CAKI-1)	GI50 (SF-268)	GI50 (SN12C)	GI50 (UO-31)	GI50 (HOP-92)	GI50 (NCI-H23)	GI50 (Hs-578T)	GI50 (HCT-15) [µM]	GI50 (IGROV-1)	GI50 (NCI-H522)	GI50 (CCRF-CEM)	GI50 (SK-MEL-2)	GI50 (DU-145)	GI50 (SW-620)	GI50 (SK-MEL-28)	GI50 (LOX IMVI)	GI50 (RXF 393)	GI50 (SNB-75)
c1ccc2c(c1)SC1=Nc3sc4ccccc4[n+]3CN12	17.2 µM (inactive)	14.2 µM (inactive)	17.4 µM (inactive)	20.8 µM (inactive)	18.5 µM (inactive)	7.53 µM (inactive)	6.01 µM (inactive)	13.7 µM (inactive)	40.2	11.8 µM (inactive)	2.7 µM (inactive)	16.6 µM (inactive)	11.4 µM (inactive)	27.8 µM (inactive)	10.4 µM (inactive)				
CCOC(=O)N1CCNCCN(C(=O)OCC)CCNCC1		> 100 µM (inactive)	> 100 µM (inactive)	> 100 µM (inactive)	> 100 µM (inactive)	> 100 µM (inactive)	> 100 µM (inactive)	> 100 µM (inactive)	> 100	> 100 µM (inactive)	> 100 µM (inactive)	> 100 µM (inactive)	> 100 µM (inactive)	> 100 µM (inactive)	> 100 µM (inactive)	> 100 µM (inactive)	> 100 µM (inactive)	> 100 µM (inactive)	
Nc1ccc(Oc2ccc(C3(c4ccc(Oc5ccc(N)c(O)c5)cc4)C4CC5C6CC7CC5C3C(C7)C6C4)cc2)cc1O		2.49 µM (inactive)	2.72 µM (inactive)	1.55 µM (inactive)	2.04 µM (inactive)	1.77 µM (inactive)	2.47 µM (inactive)	3.13 µM (inactive)	2.4	2.2 µM (inactive)	1.83 µM (inactive)	16 µM (inactive)	2.36 µM (inactive)	1.86 µM (inactive)	2.18 µM (inactive)		2.1 µM (inactive)	1.7 µM (inactive)	
Cc1nn(-c2ccccc2)c2c1N=C(C(=O)O)CC(c1ccccc1)=N2	> 10 µM (inactive)	> 10 µM (inactive)	> 10 µM (inactive)	> 10 µM (inactive)		> 10 µM (inactive)	> 10 µM (inactive)	> 10 µM (inactive)	> 10	> 10 µM (inactive)	> 10 µM (inactive)			> 10 µM (inactive)	> 10 µM (inactive)	> 10 µM (inactive)	> 10 µM (inactive)		> 10 µM (inactive)
c1cc2cc(c1)CN1CCNCCN(CCNCC1)Cc1cccc(c1)CN1CCNCCN(CCNCC1)C2	> 100 µM (inactive)		> 100 µM (inactive)	> 100 µM (inactive)	> 100 µM (inactive)		> 100 µM (inactive)	> 100 µM (inactive)	> 100	> 100 µM (inactive)			> 100 µM (inactive)	> 100 µM (inactive)	> 100 µM (inactive)	> 100 µM (inactive)	> 100 µM (inactive)		> 100 µM (inactive)
COc1cc(S(=O)(=O)Nc2nc(-c3ccc(N4C(=O)/C(=C/c5ccccc5[N+](=O)[O-])N=C4c4ccccc4)cc3)cs2)ccc1Cl	95.7 µM (inactive)	> 100 µM (inactive)	22.6 µM (inactive)	> 100 µM (inactive)	> 100 µM (inactive)	88.3 µM (inactive)	29.9 µM (inactive)		> 100	41.6 µM (inactive)	48.3 µM (inactive)	> 100 µM (inactive)	33.3 µM (inactive)	> 100 µM (inactive)	> 100 µM (inactive)	> 100 µM (inactive)	50.2 µM (inactive)	63.5 µM (inactive)	> 100 µM (inactive)
O=C(OCc1ccccc1)N1CCNCCNCCN(C(=O)OCc2ccccc2)CCNCC1	> 100 µM (inactive)	20 µM (inactive)		47.4 µM (inactive)	12.7 µM (inactive)	20.6 µM (inactive)		19.1 µM (inactive)	18.7	32.1 µM (inactive)	15.7 µM (inactive)	18.8 µM (inactive)	17.5 µM (inactive)	> 100 µM (inactive)	17.1 µM (inactive)	15.3 µM (inactive)	16.3 µM (inactive)		21.5 µM (inactive)
C=C[C@]1(O)CCC[C@]2(C)C(=O)CCC12C (stereo not given in full)	> 100 µM (inactive)		> 100 µM (inactive)	> 100 µM (inactive)	> 100 µM (inactive)	> 100 µM (inactive)	> 100 µM (inactive)	> 100 µM (inactive)	> 100	> 100 µM (inactive)	> 100 µM (inactive)		> 100 µM (inactive)	> 100 µM (inactive)	> 100 µM (inactive)	> 100 µM (inactive)	> 100 µM (inactive)	> 100 µM (inactive)	
O=S(=O)(O)CCS [MESNA]	> 100 µM (inactive)	> 100 µM (inactive)	> 100 µM (inactive)	> 100 µM (inactive)	> 100 µM (inactive)	> 100 µM (inactive)	> 100 µM (inactive)		> 100	> 100 µM (inactive)	> 100 µM (inactive)	> 100 µM (inactive)	> 100 µM (inactive)	> 100 µM (inactive)	> 100 µM (inactive)	> 100 µM (inactive)	> 100 µM (inactive)	> 100 µM (inactive)	39.7 µM (inactive)
